This passage reports MIC results from ChEMBL document CHEMBL5370535, “Thiazolyl hydrazineylidenyl indolones as unique potential multitargeting broad-spectrum antimicrobial agents” (Eur J Med Chem, 2023).

Holding throughout (assay type): functional
For assay [1], the system named is Candida albicans. Briefly: Antifungal activity against Candida albicans assessed as inhibition of fungal growth incubated for 24 hrs by CLSI based two serial dilution assay.
The test system of assay [2] is Staphylococcus aureus. Briefly: Antibacterial activity against Staphylococcus aureus 29213 assessed as bacterial growth inhibition incubated for 24 hrs by CLSI based two serial dilution assay.
In assay [3] the test system is Staphylococcus aureus. Description: Antibacterial activity against Staphylococcus aureus assessed as bacterial growth inhibition incubated for 24 hrs by CLSI based two serial dilution assay.
The next assay deals with Enterococcus faecalis. Description: Antibacterial activity against Enterococcus faecalis assessed as bacterial growth inhibition incubated for 24 hrs by CLSI based two serial dilution assay.
The subject of assay [4] is Pseudomonas aeruginosa. Briefly: Antibacterial activity against Pseudomonas aeruginosa ATCC 27853 assessed as bacterial growth inhibition incubated for 24 hrs by CLSI based two serial dilution assay.
In assay [5] the test system is Escherichia coli. Briefly: Antibacterial activity against Escherichia coli 25922 assessed as bacterial growth inhibition incubated for 24 hrs by CLSI based two serial dilution assay.
The subject of assay [6] is Escherichia coli. Description: Antibacterial activity against Escherichia coli assessed as bacterial growth inhibition incubated for 24 hrs by CLSI based two serial dilution assay.
Assay [7] deals with Pseudomonas aeruginosa. Description: Antibacterial activity against Pseudomonas aeruginosa assessed as bacterial growth inhibition incubated for 24 hrs by CLSI based two serial dilution assay.
Assay [8] concerns Candida albicans. Description: Antifungal activity against Candida albicans ATCC 90023 assessed as inhibition of fungal growth incubated for 24 hrs by CLSI based two serial dilution assay.
Assay [9] relates to Staphylococcus aureus. Briefly: Antibacterial activity against Staphylococcus aureus 25923 assessed as bacterial growth inhibition incubated for 24 hrs by CLSI based two serial dilution assay.
A further assay deals with Aspergillus fumigatus. Description: Antifungal activity against Aspergillus fumigatus assessed as inhibition of fungal growth incubated for 24 hrs by CLSI based two serial dilution assay.
A further assay concerns Acinetobacter baumannii. Description: Antibacterial activity against Acinetobacter baumannii assessed as bacterial growth inhibition incubated for 24 hrs by CLSI based two serial dilution assay.
Assay [10] deals with Staphylococcus aureus. Briefly: Antibacterial activity against methicillin-resistant Staphylococcus aureus assessed as bacterial growth inhibition incubated for 24 hrs by CLSI based two serial dilution assay.
In another assay the test system is Candida tropicalis. Description: Antifungal activity against Candida tropicalis assessed as inhibition of fungal growth incubated for 24 hrs by CLSI based two serial dilution assay.
The subject of the next assay is Candida parapsilosis. Description: Antifungal activity against Candida parapsilosis ATCC 22019 assessed as inhibition of fungal growth incubated for 24 hrs by CLSI based two serial dilution assay. The settings on record: Lodderomyces parapsilosis.
The subject of a further assay is Klebsiella pneumoniae. Briefly: Antibacterial activity against Klebsiella pneumoniae assessed as bacterial growth inhibition incubated for 24 hrs by CLSI based two serial dilution assay.

SMILES strings stand for the structures. Converted amounts (≈) assume the structure as drawn.

As usually defined, the MIC is the lowest concentration found to suppress growth. Take `CCCCCCN1C(=O)/C(=N\Nc2nccs2)c2ccccc21`: the MIC in the assay with Candida albicans [1] turned out to be 32 µM (≈ 10.5 µg/mL); in the assay on Staphylococcus aureus [2] it was 2 µM (≈ 0.657 µg/mL); in the assay with Staphylococcus aureus [3], 16 µM (≈ 5.26 µg/mL); with Enterococcus faecalis it was 4 µM (≈ 1.31 µg/mL); in the assay with Pseudomonas aeruginosa [4] it was 32 µM (≈ 10.5 µg/mL); with Escherichia coli [5] it was 16 µM (≈ 5.26 µg/mL). In addition, the minimum inhibitory concentration (MIC) in the assay on Escherichia coli [6] worked out at 64 µM (≈ 21 µg/mL); in the assay with Pseudomonas aeruginosa [7], 4 µM (≈ 1.31 µg/mL); with Candida albicans [8] it was 64 µM (≈ 21 µg/mL); in the assay on Staphylococcus aureus [9], 32 µM (≈ 10.5 µg/mL); in the assay on Aspergillus fumigatus, 32 µM (≈ 10.5 µg/mL); with Acinetobacter baumannii, 16 µM (≈ 5.26 µg/mL). Besides, the MIC amounted to 64 µM (≈ 21 µg/mL) in the assay with Staphylococcus aureus [10], 16 µM (≈ 5.26 µg/mL) in the assay with Candida tropicalis, 64 µM (≈ 21 µg/mL) with Candida parapsilosis and 16 µM (≈ 5.26 µg/mL) with Klebsiella pneumoniae.

As for `CCCCCCCCN1C(=O)/C(=N\Nc2nccs2)c2ccccc21`, the minimal inhibitory concentration (MIC) with Candida albicans [1] was found to be 512 µM (≈ 183 µg/mL); in the assay on Staphylococcus aureus [2] it was 512 µM (≈ 183 µg/mL); in the assay with Staphylococcus aureus [3], 512 µM (≈ 183 µg/mL); in the assay on Enterococcus faecalis it was 32 µM (≈ 11.4 µg/mL); in the assay on Pseudomonas aeruginosa [4] it was 128 µM (≈ 45.6 µg/mL); with Escherichia coli [5], 256 µM (≈ 91.3 µg/mL). For the same compound, the minimum inhibitory concentration (MIC) with Escherichia coli [6] was found to be 512 µM (≈ 183 µg/mL); in the assay on Pseudomonas aeruginosa [7], 64 µM (≈ 22.8 µg/mL); with Candida albicans [8], 256 µM (≈ 91.3 µg/mL); in the assay with Staphylococcus aureus [9], 512 µM (≈ 183 µg/mL); in the assay on Aspergillus fumigatus it was 512 µM (≈ 183 µg/mL); in the assay with Acinetobacter baumannii it was 512 µM (≈ 183 µg/mL). The MIC in the assay on Staphylococcus aureus [10] came to 512 µM (≈ 183 µg/mL); in the assay with Candida tropicalis, 512 µM (≈ 183 µg/mL); in the assay with Candida parapsilosis, 128 µM (≈ 45.6 µg/mL); in the assay with Klebsiella pneumoniae, 512 µM (≈ 183 µg/mL).

`C=CC1=C(C(=O)O)N2C(=O)[C@@H](NC(=O)/C(=N\O)c3csc(N)n3)[C@H]2SC1` [CEFDINIR]: the MIC came to 0.5 µM (≈ 0.198 µg/mL) with Staphylococcus aureus [2]; 1 µM (≈ 0.395 µg/mL) with Staphylococcus aureus [3]; 2 µM (≈ 0.791 µg/mL) in the assay with Enterococcus faecalis; 1 µM (≈ 0.395 µg/mL) in the assay on Pseudomonas aeruginosa [4]; 2 µM (≈ 0.791 µg/mL) in the assay with Escherichia coli [5]; 1 µM (≈ 0.395 µg/mL) with Escherichia coli [6]. In addition, the MIC in the assay with Pseudomonas aeruginosa [7] came to 0.5 µM (≈ 0.198 µg/mL); in the assay with Staphylococcus aureus [9], 0.5 µM (≈ 0.198 µg/mL); with Acinetobacter baumannii it was 2 µM (≈ 0.791 µg/mL); in the assay with Staphylococcus aureus [10], 1 µM (≈ 0.395 µg/mL); in the assay with Klebsiella pneumoniae it was 0.5 µM (≈ 0.198 µg/mL).

For `OC(Cn1cncn1)(Cn1cncn1)c1ccc(F)cc1F` [FLUCONAZOLE], the MIC in the assay with Candida albicans [1] came out at 4 µM (≈ 1.23 µg/mL); with Candida albicans [8], 2 µM (≈ 0.613 µg/mL); in the assay on Aspergillus fumigatus, 256 µM (≈ 78.4 µg/mL); in the assay with Candida tropicalis, 8 µM (≈ 2.45 µg/mL); in the assay with Candida parapsilosis, 4 µM (≈ 1.23 µg/mL).

`O=C1Nc2ccccc2/C1=N/Nc1nccs1`: the MIC in the assay with Candida albicans [1] turned out to be 256 µM (≈ 62.5 µg/mL); in the assay on Staphylococcus aureus [2] it was 128 µM (≈ 31.3 µg/mL); in the assay on Staphylococcus aureus [3], 512 µM (≈ 125 µg/mL); in the assay on Enterococcus faecalis, 128 µM (≈ 31.3 µg/mL); with Pseudomonas aeruginosa [4], 128 µM (≈ 31.3 µg/mL); with Escherichia coli [5], 128 µM (≈ 31.3 µg/mL). Moreover, the MIC with Escherichia coli [6] turned out to be 256 µM (≈ 62.5 µg/mL); in the assay on Pseudomonas aeruginosa [7] it was 512 µM (≈ 125 µg/mL); in the assay on Candida albicans [8], 128 µM (≈ 31.3 µg/mL); in the assay with Staphylococcus aureus [9] it was 128 µM (≈ 31.3 µg/mL); in the assay with Aspergillus fumigatus it was 32 µM (≈ 7.82 µg/mL); in the assay with Acinetobacter baumannii, 64 µM (≈ 15.6 µg/mL). In addition, the MIC in the assay on Staphylococcus aureus [10] was 128 µM (≈ 31.3 µg/mL); with Candida tropicalis, 256 µM (≈ 62.5 µg/mL); with Candida parapsilosis, 64 µM (≈ 15.6 µg/mL); in the assay on Klebsiella pneumoniae, 512 µM (≈ 125 µg/mL).

As to `CCCCN1C(=O)/C(=N\Nc2nccs2)c2cc(C)ccc21`, the MIC in the assay on Candida albicans [1] amounted to 4 µM (≈ 1.26 µg/mL); with Staphylococcus aureus [2], 2 µM (≈ 0.629 µg/mL); in the assay on Staphylococcus aureus [3] it was 4 µM (≈ 1.26 µg/mL); in the assay on Enterococcus faecalis, 32 µM (≈ 10.1 µg/mL); in the assay on Pseudomonas aeruginosa [4] it was 32 µM (≈ 10.1 µg/mL); in the assay on Escherichia coli [5], 4 µM (≈ 1.26 µg/mL). In addition, the MIC came out at 4 µM (≈ 1.26 µg/mL) in the assay with Escherichia coli [6]; 16 µM (≈ 5.03 µg/mL) with Pseudomonas aeruginosa [7]; 4 µM (≈ 1.26 µg/mL) in the assay with Candida albicans [8]; 8 µM (≈ 2.52 µg/mL) in the assay on Staphylococcus aureus [9]; 2 µM (≈ 0.629 µg/mL) with Aspergillus fumigatus; 2 µM (≈ 0.629 µg/mL) with Acinetobacter baumannii. Moreover, the MIC in the assay with Staphylococcus aureus [10] stood at 4 µM (≈ 1.26 µg/mL); in the assay with Candida tropicalis, 2 µM (≈ 0.629 µg/mL); in the assay on Candida parapsilosis, 1 µM (≈ 0.314 µg/mL); with Klebsiella pneumoniae, 2 µM (≈ 0.629 µg/mL).

As for `CCCN1C(=O)/C(=N\Nc2nccs2)c2ccccc21`, the minimum inhibitory concentration (MIC) with Candida albicans [1] was determined as 64 µM (≈ 18.3 µg/mL); in the assay on Staphylococcus aureus [2], 4 µM (≈ 1.15 µg/mL); in the assay with Staphylococcus aureus [3], 16 µM (≈ 4.58 µg/mL); in the assay on Enterococcus faecalis, 16 µM (≈ 4.58 µg/mL); in the assay on Pseudomonas aeruginosa [4] it was 32 µM (≈ 9.16 µg/mL); with Escherichia coli [5] it was 4 µM (≈ 1.15 µg/mL). For the same compound, the minimal inhibitory concentration (MIC) with Escherichia coli [6] amounted to 128 µM (≈ 36.7 µg/mL); in the assay on Pseudomonas aeruginosa [7] it was 2 µM (≈ 0.573 µg/mL); in the assay on Candida albicans [8], 128 µM (≈ 36.7 µg/mL); in the assay on Staphylococcus aureus [9], 4 µM (≈ 1.15 µg/mL); with Aspergillus fumigatus, 16 µM (≈ 4.58 µg/mL); with Acinetobacter baumannii, 32 µM (≈ 9.16 µg/mL). The MIC in the assay on Staphylococcus aureus [10], with Candida tropicalis, with Candida parapsilosis and in the assay on Klebsiella pneumoniae was 32 µM (≈ 9.16 µg/mL) each time.
